{"source": "paper PMC3760305", "about": "“Mimicking Protein–Protein Interactions through Peptide–Peptide Interactions: HIV-1 gp120 and CXCR4” (Frontiers in Immunology, 2013)", "key": {"[1]": {"molecular_target": "T1, CXCR4 mimetic peptide CX4-M1 (Homo sapiens, UniProt P61073)", "test": "Direct ELISA: fluoresceinylated V3 loop peptides binding to CX4-M1", "conditions": "for effect of alanine substitution in V3HxBc2 on binding to CX4-M1: direct ELISA, relative to V3HxBc2; for binding of V3 loop peptide to CX4-M1 (direct ELISA): CX4-M1 0.5 μM on streptavidin plate, fluoresceinylated V3 loop peptides 250 or 100 nM, 3 h, absorbance 492 nm", "procedure": "(§1) High binding microtiter plates (Immulon 2HB) were coated overnight at 4°C with streptavidin (4 μg/mL) in 0.1 M sodium carbonate buffer pH 9.5. Unspecific binding was blocked with 1% BSA in 0.1 M phosphate buffer pH 7.2, 200 μL/well for 1 h. All following steps were performed using 0.1 M phosphate buffer pH 7.2 containing 1% BSA (ELISA with V3 loop peptides) and 0.1% BSA (ELISA with gp120), respectively, as well as 0.01% Tween 20. Plates were incubated with 100 μL CX4-M1 variants (0.5 μM for binding to V3 loop peptides, 2.5 μM for binding to gp120), or biotin alone as a blank, for 2 h. Plates were then incubated for 3 h with fluoresceinylated V3 loop peptides (250 or 100 nM), or gp120 (8.3 nM, either with or without 8.3 nM sCD4). V3 loop peptides were detected using 100 μL/well mouse anti-fluorescein-HRP conjugate from antibodies online (3 μg/mL) for 1 h. Gp120 was detected using a two antibody system. Sheep anti-gp120 (D7324) from Aalto Bio Reagents (0.2 μg/mL) was added for 1 h, followed by a 1 h incubation with rabbit anti-sheep-HRP conjugate from Dianova (3 μg/mL), 100 μL/well. Plates were washed four times with 0.01% Tween 20 in 0.1 M phosphate buffer pH 7.2 (300 μL/well) after each incubation step. Plates were developed with 100 μL/well OPD (1 mg/mL) in the presence of 0.03% H2O2 for approximately 1.5 min (V3 loop peptide detection), or 3.5 min (gp120 detection) in the dark. After the reaction was stopped with 50 μL/well 2 M H2SO4, absorbances were read at 492 nm and corrected for the blank (sample with biotin instead of CX4-M1). All data points present means of at least duplicates."}, "gp120MN": {"molecular_target": "T2, gp120MN (Human immunodeficiency virus type 1 group M subtype B, UniProt P05877)", "T2 construct": "gp120MN, gp120ADA, and gp120HxBc2 from Immune Technology; purchased Immune Technology", "test": "SPR: binding of gp120 to captured CX4-M1", "design": "species or system HIV-1", "protocol": "(§2) All measurements were performed using a Biacore X100 instrument in conjunction with the Biotin CAPture Kit (both from GE Healthcare). Sensor chip CAP was hybridized with a 1:10 dilution of CAPture reagent (streptavidin conjugate) in running buffer. […] For dehybridization, a regeneration solution of 6 M guanidinium chloride and 250 mM sodium hydroxide was used. HBS-N buffer (10 mM HEPES, 150 mM sodium chloride, pH 7.4) containing 0.05% Tween 20, as well as 100 mM (V3 loop peptides) or 2.5 mM (gp120) magnesium chloride, was used as running buffer. Measurement and data evaluation was performed using Biacore X100 Control Software (Version 2.0) and Biacore X100 Evaluation Software (Version 2.0), respectively."}, "gp120HxBc2 [2]": {"molecular_target": "T3, gp120HxBc2 (Human immunodeficiency virus type 1 group M subtype B, UniProt P04578)", "T3 construct": "gp120MN, gp120ADA, and gp120HxBc2 from Immune Technology; purchased Immune Technology", "test": "SPR: binding of gp120 to captured CX4-M1", "design": "species or system HIV-1", "protocol": "as §2"}, "gp120HxBc2 [3]": {"molecular_target": "T3, gp120HxBc2", "format": "binding, HIV-1", "conditions": "direct ELISA; variants 2.5 μM; gp120 8.3 nM in the presence of sCD4; relative to CX4-M1", "procedure": "as §1"}, "V3 loop peptide V3HxBc2": {"tested_on": "V3 loop peptide V3HxBc2", "test": "Direct ELISA: CX4-M1 variants binding to V3 loop peptide", "design": "species or system HIV-1", "conditions": "variants 0.5 μM, fluoresceinylated V3HxBc2, relative to CX4-M1", "procedure": "as §1"}, "[4]": {"molecular_target": "T1, CXCR4 mimetic peptide CX4-M1", "test": "SPR: binding of V3 loop peptides to captured CX4-M1", "conditions": "SPR Biacore X100; CX4-M1 (2 μM) bound to streptavidin; V3 loop peptides 5–0.3 μM; HBS-N pH 7.4, 0.05% Tween 20, 100 mM MgCl2", "protocol": "as §2"}}, "note": "“Also recorded” adds a separate entry of the source."}
{"compound": "Fluo-X-G-X-CTRPNNNTRKRIRIQRGPGRAFVTAGKIGNMRQAHC-NH2 (disulfide) [V3HxBc2 I320A, alanine scan variant of V3HxBc2]", "values": [{"measurement": "effect of alanine substitution in V3HxBc2 on binding to CX4-M1", "setting": "[1]", "value": "strongly diminished binding"}]}
{"compound": "CC[C@H](C)[C@@H]1NC(=O)[C@H](Cc2ccc(O)cc2)NC(=O)[C@H](CCCNC(=N)N)NC(=O)[C@H](CC(=O)O)NC(=O)CCCCCNC(=O)CCNC(=O)CCCCCNC(=O)[C@H](CCCCN)NC(=O)[C@@H](NC(=O)[C@H](CC(C)C)NC(=O)[C@H](Cc2ccccc2)NC(=O)[C@H](CC(N)=O)NC(=O)CNC(=O)[C@H](Cc2ccccc2)NC(=O)[C@H](Cc2ccc(O)cc2)NC(=O)[C@H](Cc2c[nH]c3ccccc23)NC(=O)[C@H](CC(N)=O)NC(=O)[C@H](C)NC(=O)[C@@H](NC(=O)[C@H](C)NC(=O)[C@H](CC(=O)O)NC(C)=O)C(C)C)CSSC[C@@H](C(=O)N[C@@H](CC(=O)O)C(=O)N[C@@H](CCCNC(=N)N)C(=O)N[C@@H](Cc2ccccc2)C(=O)N[C@@H](Cc2ccc(O)cc2)C(=O)N2CCC[C@H]2C(=O)N[C@@H](CC(N)=O)C(=O)N[C@@H](CC(=O)O)C(=O)N[C@@H](CC(C)C)C(=O)N[C@@H](Cc2c[nH]c3ccccc23)C(=O)N[C@H](C(=O)NCCCCCC(=O)NCCC(=O)NCCCCCC(=O)N[C@@H](CC(=O)O)C(=O)N[C@@H](CO)C(=O)N[C@@H](Cc2ccccc2)C(=O)N[C@H](C(=O)N[C@@H](CC(C)C)C(=O)N[C@@H](CC(C)C)C(=O)N[C@@H](CCC(=O)O)C(=O)N[C@H](C(=O)N[C@H](C(=O)N[C@@H](CCCCN)C(=O)N[C@@H](CCC(N)=O)C(=O)NCC(=O)N[C@@H](CO)C(=O)N[C@@H](CCC(=O)O)C(=O)N[C@@H](Cc2ccccc2)C(=O)N[C@@H](CCC(=O)O)C(=O)N[C@@H](CC(N)=O)C(=O)N[C@H](C(=O)N[C@H](C(=O)N[C@@H](Cc2c[nH]cn2)C(=O)N[C@@H](CCCCN)C(=O)NCCCCCC(=O)N[C@@H](CCCCNC(=O)CCCC[C@@H]2SC[C@@H]3NC(=O)N[C@@H]32)C(N)=O)C(C)C)[C@@H](C)O)[C@@H](C)CC)[C@@H](C)CC)[C@@H](C)CC)C(C)C)NC1=O", "note": "[CX4-M1]", "values": [{"measurement": "Kd", "setting": "gp120MN", "value": 700, "unit": "nM"}, {"measurement": "Kd", "setting": "gp120HxBc2 [2]", "value": 200, "unit": "nM"}]}
{"compound": "Fluo-X-G-X––––––-C^dQRGPGRAC^d–––––––-NH2 (disulfide) [V3HxBc2 turn, truncated variant of V3HxBc2 presenting only the turn region]", "values": [{"measurement": "binding of V3 loop peptide to CX4-M1 (direct ELISA)", "setting": "[1]", "value": "complete loss of binding"}]}
{"compound": "Ac-ECL1-X-B-X-DRYICDRFAPNDLWV-X-B-X-ECL3-X-K(Bio)-NH2 (disulfide) [CX4-M1 Y190A, alanine substitution variant of ECL2 of CX4-M1]", "values": [{"measurement": "effect of alanine substitution in ECL2 of CX4-M1 on binding to gp120HxBc2", "setting": "gp120HxBc2 [3]", "value": "attenuated binding"}, {"measurement": "effect of alanine substitution in ECL2 of CX4-M1 on binding to V3HxBc2", "setting": "V3 loop peptide V3HxBc2", "value": "enhancement of binding"}]}
{"compound": "Ac-ECL1-X-B-X-DRYICDRFYPNDLWA-X-B-X-ECL3-X-K(Bio)-NH2 (disulfide) [CX4-M1 V196A, alanine substitution variant of ECL2 of CX4-M1]", "values": [{"measurement": "effect of alanine substitution in ECL2 of CX4-M1 on binding to V3HxBc2", "setting": "V3 loop peptide V3HxBc2", "value": "enhancement of binding"}]}
{"compound": "Fluo-X-G-X-CTRPNNNTRK––QRGPGRA–-GKIGNMRQAHC–NH2 (disulfide) [V3HxBc2 Δbeta]", "values": [{"measurement": "binding of V3 loop peptide to CX4-M1 (direct ELISA)", "setting": "[1]", "value": "complete loss of binding"}]}
{"compound": "Fluo-X-G-X-CTRPNNNTRKRIRIQRGPGRAAVTIGKIGNMRQAHC-NH2 (disulfide) [V3HxBc2 F317A, alanine scan variant of V3HxBc2]", "values": [{"measurement": "effect of alanine substitution in V3HxBc2 on binding to CX4-M1", "setting": "[1]", "value": "strongly diminished binding"}]}
{"compound": "Fluo-X-G-X-CTRPNNNTRKRIRIQRGPGRAFATIGKIGNMRQAHC-NH2 (disulfide) [V3HxBc2 V318A, alanine scan variant of V3HxBc2]", "values": [{"measurement": "effect of alanine substitution in V3HxBc2 on binding to CX4-M1", "setting": "[1]", "value": "strongly diminished binding"}]}
{"compound": "Fluo-X-G-X-CTRPNNNTRKRARIQRGPGRAFVTIGKIGNMRQAHC-NH2 (disulfide) [V3HxBc2 I307A, alanine scan variant of V3HxBc2]", "values": [{"measurement": "effect of alanine substitution in V3HxBc2 on binding to CX4-M1", "setting": "[1]", "value": "strongly diminished binding"}]}
{"compound": "Fluo-X-G-X-CTRPNNNTRKSIHI–GPGRAFYTTGEIIGDIRQAHC-NH2 (disulfide) [Peptide V3ADA, fluoresceinylated peptide presenting the V3 loop of gp120 from R5-tropic HIV-1 ADA]", "values": [{"measurement": "KD (V3 loop peptide) to CX4-M1", "setting": "[4]", "value": "No binding"}]}
{"compound": "Fluo-X-G-X-CTRPNNNTRKRIRAQRGPGRAFVTIGKIGNMRQAHC-NH2 (disulfide) [V3HxBc2 I309A, alanine scan variant of V3HxBc2]", "values": [{"measurement": "effect of alanine substitution in V3HxBc2 on binding to CX4-M1", "setting": "[1]", "value": "strongly diminished binding"}]}
{"compound": "Ac-ECL1-X-B-X-DRYICDRFYPNDAWV-X-B-X-ECL3-X-K(Bio)-NH2 (disulfide) [CX4-M1 L194A, alanine substitution variant of ECL2 of CX4-M1]", "values": [{"measurement": "effect of alanine substitution in ECL2 of CX4-M1 on binding to gp120HxBc2", "setting": "gp120HxBc2 [3]", "value": "negative effect on the affinity; also recorded: attenuated binding"}, {"measurement": "effect of alanine substitution in ECL2 of CX4-M1 on binding to V3HxBc2", "setting": "V3 loop peptide V3HxBc2", "value": "enhancement of binding"}]}
{"compound": "Yc-X-G-X-CTRPNNNTRKSIHI–GPGRALYTTGEIIGDIRQAHC-NH2 (disulfide) [Peptide V3BAL, fluoresceinylated peptide presenting the V3 loop of gp120 from R5-tropic HIV-1 BAL]", "values": [{"measurement": "KD (V3 loop peptide) to CX4-M1", "setting": "[4]", "value": "No binding"}]}
{"compound": "Fluo-X-G-X––––-C^dRIRIQRGPGRAFVTIC^d–––––-NH2 (disulfide) [V3HxBc2 turn/beta, truncated variant of V3HxBc2 presenting the turn region and the two beta strands]", "values": [{"measurement": "binding of V3 loop peptide to CX4-M1 (direct ELISA)", "setting": "[1]", "value": "retained some of the affinity"}]}
{"compound": "Fluo-X-G-X-CTRPNNNTRKRIAIQRGPGRAFVTIGKIGNMRQAHC-NH2 (disulfide) [V3HxBc2 R308A, alanine scan variant of V3HxBc2]", "values": [{"measurement": "effect of alanine substitution in V3HxBc2 on binding to CX4-M1", "setting": "[1]", "value": "strongly diminished binding"}]}
{"compound": "Ac-ECL1-X-B-X-DRAICDRFYPNDLWV-X-B-X-ECL3-X-K(Bio)-NH2 (disulfide) [CX4-M1 Y184A, alanine substitution variant of ECL2 of CX4-M1]", "values": [{"measurement": "effect of alanine substitution in ECL2 of CX4-M1 on binding to gp120HxBc2", "setting": "gp120HxBc2 [3]", "value": "attenuated binding"}, {"measurement": "effect of alanine substitution in ECL2 of CX4-M1 on binding to V3HxBc2", "setting": "V3 loop peptide V3HxBc2", "value": "enhancement of binding"}]}
